The source of these data is patent US8546414B2, “Ion channel modulators and methods of use” (Vertex Pharmaceuticals Incorporated, priority 2004, dated 2013).

For assay [1] the following is noted: neuropathic pain; cited from earlier work.
For another assay, the target named is NaV1.6 (Homo sapiens, UniProt Q9UQD0). Particulars: read-out: TTX IC50; cited from earlier work.
For another assay, the target named is NaV1.1 (Homo sapiens, UniProt P35498). To be noted: read-out: TTX IC50; cited from earlier work.
The target in assay [2] is T1, NaV1.8 (Homo sapiens, UniProt Q9Y5Y9). To be noted: read-out: TTX IC50; cited from earlier work.
Target sequence in this assay (Q9Y5Y9 whole entry, looked up): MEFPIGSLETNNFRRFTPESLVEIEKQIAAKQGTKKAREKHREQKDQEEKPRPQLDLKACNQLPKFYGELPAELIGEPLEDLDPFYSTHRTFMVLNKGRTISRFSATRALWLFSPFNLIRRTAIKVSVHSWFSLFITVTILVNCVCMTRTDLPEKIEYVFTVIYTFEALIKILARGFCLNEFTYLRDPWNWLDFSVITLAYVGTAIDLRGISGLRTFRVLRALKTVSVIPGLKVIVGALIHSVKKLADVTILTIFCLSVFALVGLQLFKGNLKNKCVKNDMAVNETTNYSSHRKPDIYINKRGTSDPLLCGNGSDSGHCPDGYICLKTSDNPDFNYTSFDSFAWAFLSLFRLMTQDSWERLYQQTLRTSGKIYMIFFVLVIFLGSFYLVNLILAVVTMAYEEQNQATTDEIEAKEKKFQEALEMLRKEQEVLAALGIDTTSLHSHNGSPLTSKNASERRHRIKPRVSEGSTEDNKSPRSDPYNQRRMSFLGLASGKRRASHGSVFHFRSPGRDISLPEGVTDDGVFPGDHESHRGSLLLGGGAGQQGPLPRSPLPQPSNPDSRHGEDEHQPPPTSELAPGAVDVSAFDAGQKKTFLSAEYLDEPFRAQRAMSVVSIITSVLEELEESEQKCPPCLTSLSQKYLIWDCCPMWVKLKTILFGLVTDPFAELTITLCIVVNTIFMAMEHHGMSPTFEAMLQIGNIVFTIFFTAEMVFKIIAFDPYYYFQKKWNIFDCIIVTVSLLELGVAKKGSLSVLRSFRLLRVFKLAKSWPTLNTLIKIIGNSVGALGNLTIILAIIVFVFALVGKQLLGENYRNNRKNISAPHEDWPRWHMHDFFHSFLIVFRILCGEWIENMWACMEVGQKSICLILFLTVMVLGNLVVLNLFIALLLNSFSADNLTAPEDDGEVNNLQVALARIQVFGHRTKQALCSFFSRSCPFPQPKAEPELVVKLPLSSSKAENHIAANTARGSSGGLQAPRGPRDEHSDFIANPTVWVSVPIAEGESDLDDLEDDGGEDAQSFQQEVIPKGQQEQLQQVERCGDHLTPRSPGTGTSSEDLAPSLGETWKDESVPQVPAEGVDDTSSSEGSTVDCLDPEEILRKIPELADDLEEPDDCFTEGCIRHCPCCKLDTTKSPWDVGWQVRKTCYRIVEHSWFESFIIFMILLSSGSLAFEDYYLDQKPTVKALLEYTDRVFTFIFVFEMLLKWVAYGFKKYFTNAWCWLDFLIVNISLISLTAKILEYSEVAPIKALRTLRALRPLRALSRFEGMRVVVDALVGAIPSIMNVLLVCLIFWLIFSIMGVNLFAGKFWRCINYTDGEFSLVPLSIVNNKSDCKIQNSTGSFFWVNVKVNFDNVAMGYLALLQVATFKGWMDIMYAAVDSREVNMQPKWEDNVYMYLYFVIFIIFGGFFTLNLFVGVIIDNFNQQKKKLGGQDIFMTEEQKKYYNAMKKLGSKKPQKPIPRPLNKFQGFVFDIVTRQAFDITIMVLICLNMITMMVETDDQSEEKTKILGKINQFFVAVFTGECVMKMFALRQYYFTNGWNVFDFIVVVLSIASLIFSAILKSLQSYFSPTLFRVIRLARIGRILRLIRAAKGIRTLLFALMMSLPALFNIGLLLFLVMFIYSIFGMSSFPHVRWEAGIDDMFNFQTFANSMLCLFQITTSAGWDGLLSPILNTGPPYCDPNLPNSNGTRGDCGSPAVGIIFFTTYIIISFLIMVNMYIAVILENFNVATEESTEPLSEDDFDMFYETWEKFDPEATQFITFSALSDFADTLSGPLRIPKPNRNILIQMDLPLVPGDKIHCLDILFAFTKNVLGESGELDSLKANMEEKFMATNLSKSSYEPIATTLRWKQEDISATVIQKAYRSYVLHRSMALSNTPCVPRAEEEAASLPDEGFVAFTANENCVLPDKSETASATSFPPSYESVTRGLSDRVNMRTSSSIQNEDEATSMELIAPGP
In assay [3] the target is T2, NaV1.3 (Homo sapiens, UniProt Q9NY46).
T2 construct: expressed in transfected cells; host or cells: HEK293
T2 sequence (Q9NY46 whole entry): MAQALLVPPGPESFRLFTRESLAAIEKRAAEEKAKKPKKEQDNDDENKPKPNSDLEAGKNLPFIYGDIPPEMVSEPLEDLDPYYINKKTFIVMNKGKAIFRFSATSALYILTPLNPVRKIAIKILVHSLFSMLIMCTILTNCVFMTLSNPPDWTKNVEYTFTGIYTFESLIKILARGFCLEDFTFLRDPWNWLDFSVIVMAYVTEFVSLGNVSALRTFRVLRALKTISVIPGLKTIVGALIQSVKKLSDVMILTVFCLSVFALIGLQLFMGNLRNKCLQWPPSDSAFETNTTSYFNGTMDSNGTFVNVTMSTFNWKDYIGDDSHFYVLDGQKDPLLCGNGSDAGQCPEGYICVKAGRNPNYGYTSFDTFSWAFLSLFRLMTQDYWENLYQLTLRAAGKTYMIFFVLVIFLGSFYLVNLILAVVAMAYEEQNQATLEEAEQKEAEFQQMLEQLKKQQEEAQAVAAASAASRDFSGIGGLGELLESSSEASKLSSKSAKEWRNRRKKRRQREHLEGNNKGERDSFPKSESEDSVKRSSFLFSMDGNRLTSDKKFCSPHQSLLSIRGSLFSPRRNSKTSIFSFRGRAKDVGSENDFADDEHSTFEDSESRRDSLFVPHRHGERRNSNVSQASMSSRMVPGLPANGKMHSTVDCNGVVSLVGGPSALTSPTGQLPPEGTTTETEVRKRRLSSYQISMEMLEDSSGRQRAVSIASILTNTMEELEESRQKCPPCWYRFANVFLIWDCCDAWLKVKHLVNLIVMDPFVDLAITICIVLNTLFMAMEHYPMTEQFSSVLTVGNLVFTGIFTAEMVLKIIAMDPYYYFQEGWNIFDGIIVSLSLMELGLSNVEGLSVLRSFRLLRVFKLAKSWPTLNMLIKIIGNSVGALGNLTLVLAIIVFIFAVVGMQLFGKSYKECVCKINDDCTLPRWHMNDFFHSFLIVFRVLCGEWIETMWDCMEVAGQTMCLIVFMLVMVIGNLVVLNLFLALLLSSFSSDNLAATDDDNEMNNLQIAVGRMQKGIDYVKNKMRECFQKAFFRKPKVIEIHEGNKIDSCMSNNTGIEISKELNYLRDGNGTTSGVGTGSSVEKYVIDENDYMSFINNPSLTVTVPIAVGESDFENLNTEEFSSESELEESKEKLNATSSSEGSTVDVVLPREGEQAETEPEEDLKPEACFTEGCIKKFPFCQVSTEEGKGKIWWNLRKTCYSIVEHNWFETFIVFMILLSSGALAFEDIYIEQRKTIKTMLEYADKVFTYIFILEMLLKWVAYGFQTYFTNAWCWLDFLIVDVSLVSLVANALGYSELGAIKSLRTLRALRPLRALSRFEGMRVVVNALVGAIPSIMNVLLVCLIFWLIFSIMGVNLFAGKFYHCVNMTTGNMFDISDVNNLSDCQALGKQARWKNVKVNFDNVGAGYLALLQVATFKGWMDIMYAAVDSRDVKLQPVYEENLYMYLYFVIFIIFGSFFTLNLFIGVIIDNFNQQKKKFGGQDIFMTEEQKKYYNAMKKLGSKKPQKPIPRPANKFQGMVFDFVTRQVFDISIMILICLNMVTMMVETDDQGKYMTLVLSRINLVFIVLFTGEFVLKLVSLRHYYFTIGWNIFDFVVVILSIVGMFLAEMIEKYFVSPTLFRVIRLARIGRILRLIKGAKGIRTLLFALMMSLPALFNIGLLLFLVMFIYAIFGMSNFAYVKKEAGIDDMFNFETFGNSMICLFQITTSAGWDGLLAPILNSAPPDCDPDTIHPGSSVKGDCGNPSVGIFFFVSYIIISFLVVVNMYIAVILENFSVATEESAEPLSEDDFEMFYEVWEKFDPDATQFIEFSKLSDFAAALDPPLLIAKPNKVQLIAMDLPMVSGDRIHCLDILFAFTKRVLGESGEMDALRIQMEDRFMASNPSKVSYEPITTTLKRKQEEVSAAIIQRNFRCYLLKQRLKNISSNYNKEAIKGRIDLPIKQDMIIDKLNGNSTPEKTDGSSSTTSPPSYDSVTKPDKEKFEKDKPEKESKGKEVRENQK
To be noted: read-out: TTX IC50; cited from earlier work.

The next assay addresses NaV1.9 (Homo sapiens, UniProt Q9UI33). To be noted: read-out: TTX IC50; cited from earlier work.
The target in the next assay is NaV1.2 (Homo sapiens, UniProt Q99250). To be noted: read-out: TTX IC50; cited from earlier work.
The target in assay [4] is T1, NaV1.8. In words: VIPR optical membrane potential assay, NaV1.8 (other subtypes in an analogous mode). To be noted: Table 9, NaV 1.8 receptors. It counts as cell-based. Put shortly:
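Cells expressing the NaV subtype stained with coumarin and DiSBAC2(3) membrane-potential dyes, then incubated with test compound for 20-30 minutes. Depolarization evoked by sodium addback and read optically on VIPR; block measured as reduced membrane-potential response, with tetracaine as positive control.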
Target sequence in this assay (Q9Y5Y9 whole entry): as the sequence (Q9Y5Y9 whole entry, looked up) above

The target of assay [5] is T2, NaV1.3. Briefly: VIPR optical membrane potential assay with electrical stimulation, NaV1.3. It counts as cell-based. To be noted: Table 9, NaV 1.3 receptors. Put shortly: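 HEK293 cells stably expressing NaV1.3, stained with CC2-DMPE (10 μM final) then DiSBAC2(3) with ABSC1, 30 min each at RT; compounds added with oxonol. Electrical stimulation for 3 s; 460/580 nm background-subtracted emission ratio Rf/Ri, normalised to tetracaine (positive) and untreated (negative) controls.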

For another assay, the target named is T3, CaV2.2 (Homo sapiens, UniProt Q00975).
T3 construct: expressed in transfected cells; host or cells: HEK293
In words: VIPR optical membrane potential assay with electrical stimulation, CaV2.2. It counts as cell-based. Particulars: Table 9, CaV 2.2 receptors. An outline of the steps:
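HEK293 cells stably expressing CaV2.2 stained with CC2-DMPE/DiSBAC2(3) voltage-sensitive dyes (10 μM final CC2-DMPE, 30 min, RT), then compound added and cells electrically stimulated for 3-5 s. Read-out: background-subtracted 460/580 nm emission ratio; response R=Rf/Ri (post- vs pre-stimulus ratio); antagonism seen as reduced response.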

Like-named read-outs stand apart in the source and are kept apart here.

For `NCC1(CC(=O)O)CCCCC1` [Gabapentin], the “patients in whom it works” value in assay [1] was 60%.

Usually IC50 stands for the concentration at which inhibition is half-maximal. In the case of `NC1=N[C@H](O)[C@H]2[C@H]3O[C@]4(O)O[C@@H]([C@@H](O)[C@@]2(N1)[C@@H]4O)[C@]3(O)CO` [TTX, tetrodotoxin], the IC50 on NaV1.6 is 0.006 µM; at NaV1.1 it was 0.01 µM; on NaV1.8 [2] it was greater than 50 µM; at NaV1.3 [3], 0.015 µM; on NaV1.9, 1 µM; at NaV1.2, 0.01 µM.

With `CC(C)N(Cc1ccc(N2CCCC2)cc1)C(=O)c1cnc(N2CCCCC2)nc1-c1ccccc1Cl` [compound 198], the IC50 against NaV1.8 [4] is greater than 10 µM; against NaV1.3 [5], greater than 10 µM; at CaV2.2, 2 to 10 µM.

`CN(CCc1ccccc1)C(=O)c1cnc(N2CCOCC2)nc1-c1ccccc1F` [compound 199]: the 50% inhibitory concentration (IC50) against NaV1.8 [4], against NaV1.3 [5] and at CaV2.2 was greater than 10 µM each time.

As to `Cc1nc(N2CCOCC2)nc(-c2ccccc2F)c1C(=O)N(Cc1ccc2c(c1)CCO2)C1CC1` [compound 200], the figures for the half-maximal inhibitory concentration (IC50) on NaV1.8 [4], on NaV1.3 [5] and against CaV2.2 were greater than 10 µM, 2 to 10 µM and 2 to 10 µM, respectively.

As to `CC(C)N(C(=O)c1cnc(N2CCSCC2)nc1-c1ccccc1F)c1ccccc1` [compound 201], the figures for the IC50 against NaV1.8 [4], against NaV1.3 [5] and on CaV2.2 were greater than 10 µM, 2 to 10 µM and 2 to 10 µM, respectively.

On to `CC(C)N(C(=O)c1cnc(N2CCOCC2)nc1-c1ccccc1F)c1cccc(C#N)c1` [compound 202], for which the IC50 against NaV1.8 [4], against NaV1.3 [5] and at CaV2.2 was greater than 10 µM in each case.

Take `COc1cccc(N(C(=O)c2cnc(N3CCCCC3)nc2-c2ccccc2Cl)C2CCOCC2)c1` [compound 203]: the IC50 against NaV1.8 [4], against NaV1.3 [5] and against CaV2.2 was greater than 10 µM in each case.

For the compound `O=C(c1cnc(N2CCSCC2)nc1-c1ccccc1F)N(Cc1cccc(-c2ccncc2)c1)C1CC1` [compound 204], the half-inhibitory concentration (IC50) at NaV1.8 [4] is greater than 10 µM; on NaV1.3 [5], 2 to 10 µM; on CaV2.2, 2 to 10 µM.

`O=C(c1cnc(N2CCOCC2)nc1-c1ccccc1F)N(Cc1ccncc1)C1CC1` [compound 205]: the concentration for half-maximal inhibition (IC50) at NaV1.8 [4], on NaV1.3 [5] and on CaV2.2 was greater than 10 µM each time.

With `O=C(c1cnc(N2CCSCC2)nc1-c1ccccc1F)N1Cc2ccccc2C1` [compound 206], the IC50 against NaV1.8 [4], at NaV1.3 [5] and on CaV2.2 was greater than 10 µM each time.

Take `CC(C)N(Cc1ccccc1)C(=O)c1cnc(Nc2ccc(Cl)cc2)nc1-c1ccccc1F` [compound 207]: the IC50 against NaV1.8 [4], against NaV1.3 [5] and at CaV2.2 was greater than 10 µM each time.
